Data as given in patent publication US20200386748A1, “COMPOSITIONS AND METHODS FOR ANALYTE DETECTION USING BIOLUMINESCENCE” (Promega Corporation, priority 2019, published 2020).
Residues, ends and D or L forms follow the SMILES beside them. No end group written: not given here. *: point of attachment. X1 = O=C(CCOCCOCCOCOCCOCCOCCOCCC(=O)*)ON1C(=O)CC(S(=O)(=O)O)C1=O; X3 = O=C(CCOCCOCCOCCOCCOCCOCCC(=O)*)ON1C(=O)CC(S(=O)(=O)O)C1=O; X2 = O=C(CCOCCOCCOCCC(=O)*)ON1C(=O)CC(S(=O)(=O)O)C1=O

B1: NanoLuc: bioluminescent polypeptide of SEQ ID NO: 5, NanoLuc luciferase (Promega) (protein)
chain: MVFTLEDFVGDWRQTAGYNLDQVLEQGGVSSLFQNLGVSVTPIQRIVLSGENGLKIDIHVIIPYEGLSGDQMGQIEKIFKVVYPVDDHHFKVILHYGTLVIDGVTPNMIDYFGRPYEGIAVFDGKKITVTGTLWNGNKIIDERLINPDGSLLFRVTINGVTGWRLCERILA

Columns and labels:
rhIL-6 = test: Solution-based IL-6 immunoassay with antibodies directly labeled with reactive peptides; set-up: species or system human; conditions: for IL-6 assay result with LgTrip 5146: 1 μM LgTrip 5146 instead of LgTrip 3546; for signal to background: IL-6 titration; for signal to background / signal in the absence of rhIL-6: paired with HW-1053, 1 μM LgTrip 3546; for light output in the presence of high rhIL-6 concentrations: SmTrip9 label on 5IL6 antibody paired with HW-1053-labeled 505E antibody, 1 μM LgTrip 3546
Protocol: The basic principle of homogeneous NanoLuc tripartite immunoassays with directly-labeled antibodies is depicted in FIG. 78.
SmTrip9 variants such as Pep693 (SEQ ID NO: 20), Pep895 (SEQ ID NO: 24), and Pep929 (SEQ ID NO: 25) or SmTrip10 variants such as Pep691 (SEQ ID NO: 18) and Pep692 (SEQ ID NO: 19) were individually dissolved in DMF to 5 mM. […] Subsequently, these antibodies were combined with 20× molar excess of a reactive peptide for 1 hr at 4° C. while shaking in order to covalently label the proteins. […] SmTrip9 reactive peptides were used to label antibody 5IL6 while SmTrip10 reactive peptides were used to label antibody 505E. The denaturing SDS-PAGE gel shown in FIG. 79 was used to characterize the conjugated antibodies.
FIGS. 80-82 display raw RLU dose response curves for antibody conjugates in the presence of a rhIL-6 titration series. […] After addition of N205, luminescence signal was measured. […] Data in FIG. 81 were generated using 62.5 ng/ml of SmTrip9-labeled (HW-0984) 5IL6 antibody and 60 ng/ml of SmTrip10-labeled (HW-1053) 505E antibody. Data in FIG. 82 were generated using the following concentrations of antibody conjugates: 15 ng/ml HW-1043 (SEQ ID NO: 24)+30 ng/ml HW-1053 (SEQ ID NO: 18), 15 ng/ml HW-1052 (SEQ ID NO: 25)+15 ng/ml HW-1053, (SEQ ID NO: 18) 15 ng/ml HW-1055 (SEQ ID NO: 25)+15 ng/ml HW-1053 (SEQ ID NO: 18), 60 ng/ml HW-1042 (SEQ ID NO: 20)+8 ng/ml HW-1053 (SEQ ID NO: 18), and 60 ng/ml HW-1050 (SEQ ID NO: 27)+8 ng/ml HW-1053 (SEQ ID NO: 18).

purified NANOLUC enzyme = molecular target: T1, purified NANOLUC enzyme (Oplophorus gracilirostris, UniProt Q9GV45, A31E/A60N/A81I/F95D/I117V/K70R/L54V/L99Q/M102K/N193R/P142E/Q151K/Q38R/Q45L/V71I/Y165I); assay type: biochemical; conditions: stored in organic solvent at elevated temperature (60° C.)
T1 construct: purchased Promega

LgTrip 3546 = test: titration of the single labeled antibody with 1 µM LgTrip 3546 and N205, no IL-6 (FIG. 83)
[1] = Protein buffer formulations for proteins dried on Whatman 903 paper; conditions: buffers 2 and 5
Protocol: For these experiments, Whatman 903 protein saver spot cards were used with the following protein buffer formulations: • Protein buffer 1: 20 mM Na3PO4, 5% w/v BSA, 0.25% v/v tween 20, 10% w/v sucrose • Protein buffer 2: 20 mM Na3PO4, 0.25% v/v tween 20, 10% w/v sucrose • Protein buffer 3: 20 mM Na3PO4, 5% w/v BSA, 0.25% v/v tween 20 • Protein buffer 4: 20 mM Na3PO4, 5% w/v BSA, 0.25% v/v tween 20, 2.5% pullulan • Protein buffer 5: 20 mM Na3PO4, 0.25% v/v tween 20, 2.5% pullulan.
For NanoLuc, a 1000× stock solution was diluted 1:1000 in protein buffer (1 mL). For a 1.068 nM stock solution, 3 μl was diluted into 297 μl of protein buffer. About 5 μL of each concentration was spotted on the filter paper. For LgBiT-1672-11s-His, 5 μL of 1.068 nM protein per spot was used. About 104, was diluted in 990 μL protein buffer for a 2e^−7M stock. About 100 μL of a 100 nM protein solution was then prepared, and about 10 μL stock was diluted into 990 μL protein buffer for 1 nM stock. About 5 μL of each concentration was spotted onto filter paper. For LgTrip 3546, about 5 μL of 1.068 nM protein was used per spot. About 1.1 of LgBiT-1672 stock was diluted into 998.94 μL protein buffer. About 3 μL stock was diluted into 297 μL protein buffer. About 54, of each concentration was spotted onto filter paper. After all protein was added, the samples were dried at 30° C. for about 1 hour. […]

LgTrip 3546, sequence (chain, as listed by the source): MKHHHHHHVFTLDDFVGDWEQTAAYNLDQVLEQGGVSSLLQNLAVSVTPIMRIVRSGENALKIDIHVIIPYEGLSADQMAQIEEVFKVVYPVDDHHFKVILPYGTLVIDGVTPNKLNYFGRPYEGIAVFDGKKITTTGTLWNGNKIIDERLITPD

Molecule	signal in the absence of rhIL-6 (rhIL-6)	RLU (LgTrip 3546)	other results
CC[C@H](C)[C@H](NC(=O)[C@@H](NC(=O)[C@@H](NC(=O)[C@@H](NC(=O)[C@H](Cc1ccccc1)NC(=O)[C@H](CC(C)C)NC(=O)[C@H](CC(C)C)NC(=O)[C@H](CCCNC(=N)N)NC(=O)CNC(=O)CCOCCOCCOCCOCOCCOCCOCCC(=O)ON1C(=O)CC(S(=O)(=O)O)C1=O)[C@@H](C)O)C(C)C)[C@@H](C)O)C(=O)N[C@@H](CCC(=O)O)C(=O)N[C@@H](CCCNC(=N)N)C(=O)N[C@@H](Cc1ccc(O)cc1)C(=O)N[C@@H](CCCNC(=N)N)C(N)=O (some centres unmarked) [HW-1043, SulfoSE-PEG6-SmTrip9 Pep895] (X1-GRLLFTVTIERYR-NH2)	low light output in the absence of the analyte	–	IL-6 assay result with LgTrip 5146 (rhIL-6): results similar to LgTrip 3546; signal to background (rhIL-6): best signal to background; light output in the presence of high rhIL-6 concentrations (rhIL-6): ~10^6 RLUs
SulfoSE-PEG3-SmTrip9 Pep938-SA (GRMLFRVTINSWRC; also: SulfoSE-PEG3 label, position not given here) [HW-1050]	low light output in the absence of the analyte	–	IL-6 assay result with LgTrip 5146 (rhIL-6): results similar to LgTrip 3546; signal to background (rhIL-6): best signal to background; light output in the presence of high rhIL-6 concentrations (rhIL-6): ~10^6 RLUs
O=c1c(Cc2ccco2)nc2c(Cc3ccccc3)[nH]c(-c3ccccc3)cn1-2 [furimazine, 8-benzyl-2-(furan-2-ylmethyl)-6-phenylimidazo[1,2-a]pyrazin-3(7H)-one]	–	–	time to loss of all activity (purified NANOLUC enzyme): about 10 days
CC[C@H](C)[C@H](NC(=O)[C@@H](NC(=O)[C@@H](NC(=O)[C@H](CCCNC(=N)N)NC(=O)[C@H](Cc1ccccc1)NC(=O)[C@H](CC(C)C)NC(=O)[C@H](CCSC)NC(=O)[C@H](CCCNC(=N)N)NC(=O)[C@H](CCCNC(=N)N)NC(=O)CCOCCOCCOCCC(=O)ON1C(=O)CC(S(=O)(=O)O)C1=O)C(C)C)[C@@H](C)O)C(=O)N[C@@H](CCC(N)=O)C(=O)N[C@@H](CCCNC(=N)N)C(=O)N[C@@H](Cc1c[nH]c2ccccc12)C(=O)N[C@@H](CCCNC(=N)N)C(=O)O (some centres unmarked) [HW-1055, SulfoSE-PEG3-SmTrip9 Pep929] (X2-RRMLFRVTIQRWR-OH)	high signal even in the absence of rhIL-6	–	–
CC[C@H](C)[C@H](NC(=O)[C@@H](NC(=O)[C@@H](NC(=O)[C@H](CCCNC(=N)N)NC(=O)[C@H](Cc1ccccc1)NC(=O)[C@H](CC(C)C)NC(=O)[C@H](CCSC)NC(=O)[C@H](CCCNC(=N)N)NC(=O)[C@H](CCCNC(=N)N)NC(=O)CCOCCOCCOCCOCCOCCOCCC(=O)ON1C(=O)CC(S(=O)(=O)O)C1=O)C(C)C)[C@@H](C)O)C(=O)N[C@@H](CCC(N)=O)C(=O)N[C@@H](CCCNC(=N)N)C(=O)N[C@@H](Cc1c[nH]c2ccccc12)C(=O)N[C@@H](CCCNC(=N)N)C(=O)O (some centres unmarked) [HW-1052, SulfoSE-PEG6-SmTrip9 Pep929] (X3-RRMLFRVTIQRWR-OH)	high signal even in the absence of rhIL-6	–	–
GRMLFRVTINSWR (antibody, not shown: large carriers; small tags and cut ends, not fully specified) [anti-IL-6 antibody 5IL6 directly labeled with HW-0984 (SulfoSE-PEG3-SmTrip9 Pep693)]	–	> 1000 RLU	–
B1	–	–	change of RLU in protein buffers without BSA [1]: largest decreases in RLU
GRLLFVVVIERYR (antibody, not shown: large carriers; small tags and cut ends, not fully specified) [anti-IL-6 antibody 5IL6 directly labeled with HW-1010 (SulfoSE-PEG3-SmTrip9 Pep895)]	–	100 RLU	–
VSGWRLFRRIS (antibody, not shown: large carriers; small tags and cut ends, also: peptide labeled on anti-IL-6 antibody 505E via SulfoSE-PEG3 linker) [anti-IL-6 antibody 505E directly labeled with HW-0977 (SulfoSE-PEG3-SmTrip10 Pep691)]	–	100 RLU	–
GRMLFRVTINSWR (antibody, not shown: large carriers; small tags and cut ends, not fully specified) [anti-IL-6 antibody 5IL6 directly labeled with HW-1042 (SulfoSE-PEG6-SmTrip9 Pep693)]	–	100 RLU	–
RRMLFRVTIQRWR (antibody, not shown: large carriers; small tags and cut ends, not fully specified) [anti-IL-6 antibody 5IL6 directly labeled with HW-1052 (SulfoSE-PEG6-SmTrip9 Pep929)]	–	100 RLU	–
